# Where a name gives a salt, the structure may show the parent alone.
# What was measured:
# LNCaP ARE-Luc = test: Luciferase assay in LNCaP cell lysates (LNCaP ARE-Luc); format: cell-based; conditions: Homo sapiens, Firefly Luciferase Assay System, read-out: LNCaP ARE-Luc % inhibition IC50 Ranges
# Procedure: Lysates were thawed on ice then collected into V-bottom 96-well tissue culture plates. Lysates were centrifuged at 4° C. for 5 minutes at 4000 rpm. To measure luminescence of LNCaP cell lysates the Firefly Luciferase Assay System (Promega) was employed, according to manufacturer's protocol. Relative luminescence units (RLU) in cell lysates were detected for 10 seconds using Promega GoMax-Multi Detection Luminometer (Promega).
# Statistical analyses were performed using GraphPad Prism (Version 6.01 for Windows; La Jolla, Calif., USA). Comparisons between treatment and control groups were compared using Two-Way ANOVA with post-hoc Dunnett's and Tukey's tests. Differences were considered statistically significant at P values less than 0.05. Densitometric quantification of relative AR levels was determined by Image.
# [1] = Microsomal stability assay, MLM; format: in vitro ADME; conditions: mouse, pH 7.4, 1 μM test compound, 0.5 mg/mL liver microsomes protein, 37° C., 0-60 min, read-out: MLM +/− NADPH: Clint (μL/min/mg protein)
# Description: (§1) Microsomal Stability Assay: Microsomal stability assay is a widely used in vitro model to characterize the metabolic conversion by phase I enzymes, such as cytochrome P450 (CYP) enzymes. Since metabolism is known to be highly variable in different species, microsomal stability assay is commonly run in multiple species. Metabolic stability of testing compound can be evaluated using human, rat, mouse, or other animal liver or intestine microsomes to predict intrinsic clearance.
# (§2) The assay was carried out in 96-well microtiter plates at 37° C. Reaction mixtures (25 μL) contained a final concentration of 1 μM test compound, 0.5 mg/mL liver microsomes protein, and 1 mM NADPH and/or 1 mM UDPGA (with alamethicin) in 100 mM potassium phosphate, pH 7.4 buffer with 3 mM MgCl2. The incubation was done with N=1, but duplicate incubation at each time point can be prepared if necessary. At each of the time points (for example, 0, 15, 30, and 60 minutes), 150 μL of quench solution (100% acetonitrile with 0.1% formic acid) with internal standard was transferred to each well. Besides the zero minute controls, mixtures containing the same components except the NADPH can also be prepared as the negative control. Verapamil was included as a positive control to verify assay performance. Plates were sealed, vortexed, and centrifuged at 4° C. for 15 minutes at 4000 rpm. The supernatant is transferred to fresh plates for LC/MS/MS analysis.
# (§3) Summarized conditions: [Compound]=1 μM, [LM]=0.5 mg/mL, [NADPH]=1 mM and/or [UDPGA]=1 mM, Buffer=100 mM Potassium Phosphate, pH 7.4 with 3 mM MgCl2, Time=0, 15, 30, and 60 min, and Temperature=37° C.
# (§4) All samples were analyzed on LC/MS/MS using an AB Sciex API 4000 instrument, coupled to a Shimadzu LC-20AD LC Pump system. Analytical samples were separated using a Waters Atlantis T3 dC18 reverse phase HPLC column (20 mm×2.1 mm) at a flow rate of 0.5 mL/min. The mobile phase consisted of 0.1% formic acid in water (solvent A) and 0.1% formic acid in 100% acetonitrile (solvent B).
# (§5) The extent of metabolism is calculated as the disappearance of the test compound, compared to the 0-min time incubation. Initial rates are calculated for the compound concentration and used to determine half-life (t½) values and subsequently, the intrinsic clearance (Clint). Clint=(0.693)(1/t½ (min))(g of liver/kg of body weight)(mL incubation/mg of microsomal protein)(45 mg of microsomal protein/g of liver weight)
# [2] = Microsomal stability assay, HLM; format: in vitro ADME; conditions: human, pH 7.4, 1 μM test compound, 0.5 mg/mL liver microsomes protein, 37° C., 0-60 min, read-out: HLM +/− NADPH: Clint (μL/min/mg protein)
# Description: as §1, §2, §3, §4, §5
SMILES,IC50 (LNCaP ARE-Luc),microsomal CLint at 1 μM [1],microsomal CLint at 1 μM [2]
CC(C)(c1ccc(OCC(=O)CNS(C)(=O)=O)cc1)c1cc(Cl)c(CCCCCl)c(Cl)c1 [Compound A34],≥ 250 nM,≥ 48 µL/min/mg,≥ 48 µL/min/mg
CS(=O)(=O)NCC(=O)COc1ccc(Cc2cc(Cl)c(OCCCCl)c(Cl)c2)cc1 [Compound A21],≥ 250 nM,≥ 48 µL/min/mg,≥ 48 µL/min/mg
CS(=O)(=O)NCC(=O)COc1ccc(-c2cc(Cl)c(OCC(O)CCl)c(Cl)c2)cc1 (centres unmarked) [Compound A25],≥ 250 nM,≥ 48 µL/min/mg,≥ 48 µL/min/mg
Cc1cc(C(C)(C)c2ccc(OCCCCl)cc2)ccc1OCC(=O)CNS(C)(=O)=O [Compound A9],≥ 250 nM,≥ 48 µL/min/mg,≥ 48 µL/min/mg
Cc1cc(OCCCCl)ccc1C(C)(C)c1ccc(OCC(=O)CNS(C)(=O)=O)cc1 [Compound A2],100 to 250 nM,≥ 48 µL/min/mg,≥ 48 µL/min/mg
CC(C)NC(=O)COc1ccc(C(C)(C)c2cc(Cl)c(OCCCCl)c(Cl)c2)cc1 [Compound A30],≥ 250 nM,< 12 µL/min/mg,12 to 48 µL/min/mg
CC(C)(c1ccc(NCC(=O)CNS(C)(=O)=O)cc1)c1cc(Cl)c(OCCCCl)c(Cl)c1 [Compound A27],≥ 250 nM,12 to 48 µL/min/mg,≥ 48 µL/min/mg
CC(C)(c1ccc(OCC(N)=O)cc1)c1cc(Cl)c(OCCCCl)c(Cl)c1 [Compound A42],≥ 250 nM,< 12 µL/min/mg,12 to 48 µL/min/mg
CC(C)(c1ccc(OCCCCl)cc1)c1ccc(OCC(=O)CNS(C)(=O)=O)c(Cl)c1 [Compound A13],≥ 250 nM,≥ 48 µL/min/mg,≥ 48 µL/min/mg
CC(C)(c1cccc(OCC(=O)CNS(C)(=O)=O)c1)c1ccc(Cl)c(OCCCCl)c1Cl [Compound A77],< 100 nM,12 to 48 µL/min/mg,< 12 µL/min/mg
Cc1cc(C(C)(C)c2ccc(OCC(=O)CNS(C)(=O)=O)cc2)ccc1OCCCCl [Compound A1],< 100 nM,≥ 48 µL/min/mg,≥ 48 µL/min/mg
CC(C)(c1ccc(OCC(=O)CNS(C)(=O)=O)c(F)c1)c1cc(Cl)c(OCCCCl)c(Cl)c1 [Compound A48],100 to 250 nM,–,≥ 48 µL/min/mg
CC(C)(c1ccc(OCCCCl)cc1)c1ccc(OCC(=O)CNS(C)(=O)=O)cc1Cl [Compound A14],≥ 250 nM,–,≥ 48 µL/min/mg
"CC(C)(c1ccc(OCC(=O)CNS(C)(=O)=O)cc1)c1cc(Cl)c(OCCCl)c(Cl)c1 [Compound A33, N-(3-(4-(2-(3,5-dichloro-4-(2-chloroethoxy)phenyl)propan-2-yl)phenoxy)-2-oxopropyl)methanesulfonamide]",< 100 nM,–,≥ 48 µL/min/mg
CN(CC(=O)CNS(C)(=O)=O)c1ccc(C(C)(C)c2cc(Cl)c(OCCCCl)c(Cl)c2)cc1 [Compound A28],≥ 250 nM,12 to 48 µL/min/mg,12 to 48 µL/min/mg
CS(=O)(=O)NCC(=O)COc1ccccc1Cc1cc(Cl)c(OCCCCl)c(Cl)c1 [Compound A49],≥ 250 nM,≥ 48 µL/min/mg,≥ 48 µL/min/mg
CC(O)(CCl)COc1c(Cl)cc(C(C)(C)c2ccc(NC(=O)C(=O)C(F)(F)F)cc2)cc1Cl (centres unmarked) [Compound A95],≥ 250 nM,–,< 12 µL/min/mg
CS(=O)(=O)NCC(=O)CCOc1ccc(-c2cc(Cl)c(OCCCCl)c(Cl)c2)cc1 [Compound A76],≥ 250 nM,–,12 to 48 µL/min/mg
CC(C)(c1ccc(OCC(=O)CNS(C)(=O)=O)cc1)c1cc(Cl)c(OCc2cccc(Cl)c2)c(Cl)c1 [Compound A37],≥ 250 nM,≥ 48 µL/min/mg,≥ 48 µL/min/mg
"CN(CC(=O)CNS(C)(=O)=O)c1ccc(C(C)(C)c2cc(Cl)c(OCCCl)c(Cl)c2)cc1 [Compound A81, N-(3-((4-(2-(3,5-dichloro-4-(2-chloroethoxy)phenyl)propan-2-yl)phenyl) (methyl)amino)-2-oxopropyl)methanesulfonamide hydrochloride]",≥ 250 nM,12 to 48 µL/min/mg,12 to 48 µL/min/mg
"CS(=O)(=O)NCC(=O)COc1ccc(C2(c3cc(Cl)c(OCCCCl)c(Cl)c3)COC2)cc1 [Compound A43, N-(3-(4-(3-(3,5-dichloro-4-(3-chloropropoxy)phenyl)oxetan-3-yl)phenoxy)-2-oxopropyl)methanesulfonamide]",< 100 nM,–,≥ 48 µL/min/mg
CC(C)(c1ccc(OCC(=O)NCCNS(C)(=O)=O)cc1)c1cc(Cl)c(OCCCCl)c(Cl)c1 [Compound A62],≥ 250 nM,–,12 to 48 µL/min/mg
CN(c1ccc(OCC(=O)CNS(C)(=O)=O)cc1)c1cc(Cl)c(OCCCCl)c(Cl)c1 [Compound A23],≥ 250 nM,≥ 48 µL/min/mg,≥ 48 µL/min/mg
CC(=O)NCC(=O)COc1ccc(C(C)(C)c2cc(Cl)c(OCCCCl)c(Cl)c2)cc1 [Compound A65],≥ 250 nM,–,≥ 48 µL/min/mg
CC(C)(c1ccc(OCC(=O)CNS(C)(=O)=O)cc1)c1ccc(OCCCCl)cc1Cl [Compound A6],≥ 250 nM,–,≥ 48 µL/min/mg
CC(C)(NS(C)(=O)=O)C(=O)COc1ccc(C(C)(C)c2cc(Cl)c(OCCCCl)c(Cl)c2)cc1 [Compound A64],≥ 250 nM,–,< 12 µL/min/mg
CC(C)(c1ccc(OCC(=O)NNS(C)(=O)=O)cc1)c1cc(Cl)c(OCCCCl)c(Cl)c1 [Compound A80],≥ 250 nM,–,12 to 48 µL/min/mg
CC(C)(c1ccc(OCC(=O)CNS(C)(=O)=O)cc1)c1ccc(OCCCCl)c(Cl)c1 [Compound A5],< 100 nM,≥ 48 µL/min/mg,≥ 48 µL/min/mg
CC(C)(c1ccc(OCC(=O)CNS(C)(=O)=O)cc1)c1cc(Cl)c(OCc2ccccc2Cl)c(Cl)c1 [Compound A79],≥ 250 nM,–,≥ 48 µL/min/mg
CC(C)(c1ccc(OCCCCl)cc1)c1ccc(OCC(=O)CNS(C)(=O)=O)c(C#N)c1 [Compound A15],≥ 250 nM,–,≥ 48 µL/min/mg
